In patent US20170247336A1 (MERCK SHARP & DOHME CORP., priority 2014, published 2017):

Columns and labels:
human HIF-PHD2 = target: T1, human HIF-PHD2 (Homo sapiens, UniProt Q9GZT9); assay: HIF-PHD2 inhibition: hydroxylation of HIF-1α peptide, time resolved fluorescence; type: biochemical; conditions: FLAG-tagged full length PHD2; 0.2 μM 2-oxoglutarate, 0.5 μM HIF-1α peptide
T1 construct: FLAG-tagged full length PHD2 expressed in and purified from baculovirus-infected Sf9 cells; FLAG; made in house; host or cells: baculovirus-infected Sf9 cells
Description: To each well of a 384-well plate, 1 μL of test compounds in DMSO (final concentration ranging from 0.3 nM to 10 μM) were added into 20 μl of assay buffer (50 mM Tris pH 7.4/0.01% Tween-20/0.1 mg/ml bovine serum albumin/10 μM ferrous sulfate/1 mM sodium ascorbate/20 μg/ml catalase) containing 0.15 μg/ml FLAG-tagged full length PHD2 expressed in and purified from baculovirus-infected Sf9 cells. After a 5 min preincubation at room temperature, the enzymatic reactions were initiated by the addition of 4 μL of substrates {final concentrations of 0.2 μM 2-oxoglutarate and 0.5 μM HIF-1α peptide biotinyl-DLDLEMLAPYIPMDDDFQL (SEQ ID NO: 1)}. After incubation for 45 minutes at room temperature, the reactions were terminated by the addition of a 25 μL quench/detection mix to a final concentration of 1 mM ortho-phenanthroline, 0.1 mM EDTA, 0.5 nM anti-(His)6 LANCE reagent (Perkin-Elmer Life Sciences), 100 nM AF647-labeled streptavidin (Invitrogen), and 2 μg/ml (His)6-VHL complex {S. Tan Protein Expr. Purif. 21, 224-234 (2001)} and the signals were developed for 30 minutes at room temperature. The ratio of time resolved fluorescence signals at 665 and 620 nm was determined, and percent inhibition was calculated relative to the high control samples (DMSO treated) run in parallel, after background subtraction.

[1] = Pharmacokinetics (half life) in rat after intravenous administration; type: in vivo; conditions: plasma, male Wistar Han rats; for half-life: male, Wistar Han, rat, iv, 0.5 mg/kg, read-out: Half Life (t1/2) (converted)
Description: The half life of compounds described in this application were evaluated in rat. Shown in Table 9 are T½ of selected examples in rat (Wister Han) for selected compounds of the present invention. In addition Table 9 includes half life data for compounds disclosed in International Patent Application published as WO 2013/043621.
The pharmacokinetics of the compounds disclosed in Table 9 were studied in male Wistar Han rats after intravenous (IV) administration. For IV dosing at 0.5 mg/kg in rat, compounds were formulated as a solution in DMSO/PEG400/water (20/60/20, by vol.). Plasma samples obtained from dosed animals were prepared for analysis by means of a single step protein precipitation technique by adding 200 μL of acetonitrile to 50 μL aliquots of individual subject samples. Samples were mixed by vortex for homogeneity and then subjected to centrifugation at 3500 rpm for 10 min. The supernatant (200 μL) was collected and injected into the LC-MS/MS for analysis. Pharmacokinetic parameters were calculated using established non-compartmental methods.

T1 sequence (Q9GZT9 whole entry): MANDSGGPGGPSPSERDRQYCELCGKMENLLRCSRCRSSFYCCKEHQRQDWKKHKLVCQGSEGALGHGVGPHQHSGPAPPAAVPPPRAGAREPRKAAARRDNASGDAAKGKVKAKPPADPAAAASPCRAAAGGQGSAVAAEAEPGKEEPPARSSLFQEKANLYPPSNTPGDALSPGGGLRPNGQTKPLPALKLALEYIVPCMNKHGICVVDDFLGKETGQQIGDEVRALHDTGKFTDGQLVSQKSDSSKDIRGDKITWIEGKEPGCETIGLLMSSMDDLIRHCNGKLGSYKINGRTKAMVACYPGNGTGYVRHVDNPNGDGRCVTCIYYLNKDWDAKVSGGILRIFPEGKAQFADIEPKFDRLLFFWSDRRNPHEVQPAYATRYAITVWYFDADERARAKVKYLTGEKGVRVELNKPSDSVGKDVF

Row | IC50 (human HIF-PHD2) [nM] | half-life [1] [h] | Half Life (t1/2) ([1]; IV 0.5 mg/kg) [h] | SMILES
1 | 2.5 | 0.69 | – | CC(NC(=O)c1cnc(C(=O)NCCC(=O)O)nc1O)c1ccc(-c2ccc(F)cc2)cc1 (racemic) [Example 44, 3-(5-((1-(4′-fluoro-[1,1′-biphenyl]-4-yl)ethyl)carbamoyl)-4-hydroxypyrimidine-2-carboxamido)propanoic acid]
2 | 0.8 | – | 1.36 | CC(CNC(=O)c1ncc(C(=O)NC2(c3ccc(Br)cc3)CC2)c(O)n1)C(=O)O (single isomer, unassigned) [Example 17, (R) or (S)-3-(5-((1-(4-bromophenyl)cyclopropyl)carbamoyl)-4-hydroxypyrimidine-2-carboxamido)-2-methylpropanoic acid]
3 | 2.7 | 6.76 | – | COc1ccc([C@@H](NC(=O)c2cnc(C(=O)NCCC(=O)O)nc2O)c2ccccc2)cc1 [Example 36]
4 | 2.4 | 0.69 | – | COc1ccc([C@H](NC(=O)c2cnc(C(=O)NCCC(=O)O)nc2O)c2ccccc2)cc1 [Example 37]
5 | 1.7 | 1.59 | – | COc1ccc(C(NC(=O)c2cnc(C(=O)NCCC(=O)O)nc2O)c2ccc3c(c2)CCO3)cc1 (stereo not shown) [Example 39, 3-(5-(((2,3-dihydrobenzofuran-5-yl)(4-methoxyphenyl)methyl)carbamoyl)-4-hydroxypyrimidine-2-carboxamido)propanoic acid]
6 | 0.8 | – | – | COc1ccc(C(NC(=O)c2cnc(C(=O)NCCC(=O)O)nc2O)c2ccc(OC)nc2)cn1 [Example 41, 3-(5-((bis(6-methoxypyridin-3-yl)methyl)carbamoyl)-4-hydroxypyrimidine-2-carboxamido)propanoic acid]
7 | 0.5 | – | – | O=C(O)CCNC(=O)c1ncc(C(=O)NC(c2ccc(Cl)cc2)c2ccc(Cl)cc2)c(O)n1 [Example 42, 3-(5-((bis(4-chlorophenyl)methyl)carbamoyl)-4-hydroxypyrimidine-2-carboxamido)propanoic acid]
8 | 0.4 | 0.62 | – | O=C(O)CCNC(=O)c1ncc(C(=O)NC2(c3ccc(Br)cc3)CC2)c(O)n1 [Example 45, 3-(5-((1-(4-bromophenyl)cyclopropyl)carbamoyl)-4-hydroxypyrimidine-2-carboxamido)propanoic acid]
9 | 1 | – | – | CC(NC(=O)c1cnc(C(=O)NCCC(=O)O)nc1O)c1ccc(Oc2ccccc2)cc1 (stereo not shown) [Example 46, 3-(4-hydroxy-5-((1-(4-phenoxyphenyl)ethyl)carbamoyl)pyrimidine-2-carboxamido)propanoic acid]
10 | 1.1 | – | – | O=C(O)CCNC(=O)c1ncc(C(=O)NC(c2ccc(Br)cc2)C(F)(F)F)c(O)n1 (stereo not shown) [Example 47, 3-(5-((1-(4-bromophenyl)-2,2,2-trifluoroethyl)carbamoyl)-4-hydroxypyrimidine-2-carboxamido)propanoic acid]
11 | 0.7 | – | – | COc1ccc(C(NC(=O)c2cnc(C(=O)NCCC(=O)O)nc2O)c2ccc(OC)cc2)cc1 [Example 48, 3-(5-((bis(4-methoxyphenyl)methyl)carbamoyl)-4-hydroxypyrimidine-2-carboxamido)propanoic acid]
12 | 1 | – | – | O=C(O)CCNC(=O)c1ncc(C(=O)NC(c2ccccc2)c2ccc(C(F)(F)F)cc2)c(O)n1 (stereo not shown) [Example 49, 3-(4-hydroxy-5-((phenyl(4-(trifluoromethyl)phenyl)methyl)carbamoyl)pyrimidine-2-carboxamido)propanoic acid]

The remaining lines, values behind:

Row | SMILES | IC50 (human HIF-PHD2) [nM] | half-life [1] [h] | Half Life (t1/2) ([1]; IV 0.5 mg/kg) [h]
13 | C[C@@H](CNC(=O)c1ncc(C(=O)NC(c2ccccc2)c2ccccc2)c(O)n1)C(=O)O (single isomer, unassigned) [Example 1] | 2.3 | 1.9 | –
14 | C[C@H](CNC(=O)c1ncc(C(=O)NC(c2ccccc2)c2ccccc2)c(O)n1)C(=O)O (single isomer, unassigned) [Example 2] | 1.7 | 1.45 | –
15 | COc1ccc(C(NC(=O)c2cnc(C(=O)NCC(C)C(=O)O)nc2O)c2ccc3cc(OC)ccc3n2)cc1 (single isomer, unassigned) [Example 14, (R) or (S)-3-(4-hydroxy-5-(((4-methoxyphenyl)(6-methoxyquinolin-2-yl)methyl)carbamoyl)pyrimidine-2-carboxamido)-2-methylpropanoic acid] | 16 | 1.36 | –
16 | COc1ccc(C(NC(=O)c2cnc(C(=O)NCC(C)C(=O)O)nc2O)c2ccc(OC)cc2)cc1 (single isomer, unassigned) [Example 15, (R) or (S)-3-(5-((bis(4-methoxyphenyl)methy)carbamoyl)-4-hydroxypyrimidine-2-carboxamido)-2-methylpropanoic acid] | 10 | 0.99 | –
17 | CC(CNC(=O)c1ncc(C(=O)NC2(c3ccc(Br)cc3)CC2)c(O)n1)C(=O)O (single isomer, unassigned) [Example 16, (R) or (S)-3-(5-((1-(4-bromophenyl)cyclopropyl)carbamoyl)-4-hydroxypyrimidine-2-carboxamido)-2-methylpropanoic acid] | 1.3 | 0.88 | –
18 | O=C(O)CCNC(=O)c1ncc(C(=O)NC(c2ccccc2)c2ccccc2)c(O)n1 [Example 2-11 from WO2013/040789, reference compound] | – | 0.28 | –
19 | O=C(O)CNC(=O)c1ncc(C(=O)NC(c2ccccc2)c2ccccc2)c(O)n1 [Example 2-12 from WO2013/040789, reference compound] | – | 0.56 | –
20 | O=C(O)c1cc(-c2ncc(C(=O)NC(c3ccccc3)c3ccccc3)c(O)n2)no1 [Example 2-16 from WO2013/040789, reference compound] | – | 0.3 | –
21 | O=C(NCC1(C(=O)O)CC1)c1ncc(C(=O)NC(c2ccccc2)c2ccccc2)c(O)n1 [Example 4, 1-((5-(benzhydrylcarbamoyl)-4-hydroxypyrimidine-2-carboxamido)methyl)cyclopropanecarboxylic acid] | 8.5 | 4.78 | –
22 | O=C(N[C@@H](Cc1c[nH]c2ccccc12)C(=O)O)c1ncc(C(=O)NC(c2ccccc2)c2ccccc2)c(O)n1 [Example 6, (2S)-2-(5-(benzhydrylcarbamoyl)-4-hydroxypyrimidine-2-carboxamido)-3-(3aH-indo1-3-yl)propanoic acid] | 8.9 | 1.68 | –
23 | O=C(NC[C@H](O)C(=O)O)c1ncc(C(=O)NC(c2ccccc2)c2ccccc2)c(O)n1 [Example 7, (S)-3-(5-(benzhydrylcarbamoyl)-4-hydroxypyrimidine-2-carboxamido)-2-hydroxypropanoic acid] | 1.4 | 1.02 | –
